Assay results published in US20180353445A1, “METHODS AND COMPOSITIONS RELATING TO PROTEASOME INHIBITOR RESISTANCE” (Whitehead Institute for Biomedical Research, priority 2017, published 2018).

Key:
Assay type in all cases: cell-based, human
[1] = tested on: T47D cells; assay: Cell viability, T47D cells with doxycycline-inducible PSMD2 shRNA (KD) vs control
[2] = tested on: IMR32 and Kelly cells; assay: Viability of IMR32 vs Kelly neuroblastoma cells
Experimental: FIGS. 24A-24C: (FIG. 24A) Plot showing the effect of various concentrations of ABT-263 on IMR32 and Kelly cells. (FIG. 24B) Plot showing effect of various concentrations of disulfiram on IMR32 and Kelly cells. (FIG. 24C) Plot showing effect of various concentrations of elesclomol on IMR32 and Kelly cells. Fold viability refers to the number of viable cells of the indicated type after culture in the presence of the indicated test compound for 72 hours divided by the number of viable cells of that type after culture in the absence of the test compound.
FIG. 28: The relative viability was examined in IMR32 cells and Kelly cells after addition of indicated concentrations of the different BCL2 family inhibitors. ABT-263 (BCL2, BCLXL, MCL1) (upper left panel), ABT-199 (BCL2) (upper right panel), WEHI-539 (BCLXL) (lower left panel), A-1210477 (MCL1) (lower right panel). The relative effect on cell growth was analyzed 72 hours after addition of drugs.

[3] = tested on: HepG2 cells; assay: RNA-seq gene expression profiling, PSMD2 knockdown and control cells; conditions: control cells
Experimental: FIGS. 3A-3E: Inhibition of bortezomib-mediated transcriptional responses in PSMD2 knockdown cells. RNA-seq gene expression profiling was conducted on cells that harbor two different shRNAs targeting PSMD2 (PSMD2-1, PSMD2-2) and on control cells (shLacZ). The effects of reducing PSMD2 levels on gene expression were highly correlated in both basal conditions (Pearson's r=0.99) and following bortezomib treatment (Pearson's r=0.94). […] Enrichment was calculated for the indicated gene sets and is presented as a normalized enrichment score (NES). […]
Gene expression analysis—RNA was extracted from triplicate samples and RNA libraries were prepared for sequencing by NEBNext Ultra RNA Library Prep Kit for Illumina (New England BioLabs, Ipswich, Mass.), including the removal of large and small RNA, synthesis of cDNA, and construction of cDNA libraries. […] Libraries were sequenced using Illumina HiSeq 2500, with paired-end 100 bp reads, Paired-end reads were aligned to UCSC human transcriptome 19 (hg19) using TopHat (Bowtie v2.0.9). Alignment quality and read distribute was assessed via SAMtools (v0.1.19) (Li et al., 2009). […] RNA sequencing data have been deposited in the NCBI Sequence Read Archive under accession number: PRJNA281613, […]

Structure (SMILES): CC(C)C[C@H](NC(=O)[C@H](Cc1ccccc1)NC(=O)c1cnccn1)B(O)O [bortezomib]
- resistance of cells harboring PSMD2 shRNA vs parental line (EC50) ([1]; T47D, transient PSMD2 reduction): EC50 values increased considerably
- resistance after transient reduction of PSMD2 ([1]; doxycycline-regulated PSMD2 shRNA): significantly increased resistance
- resistance of IMR32 cells compared to Kelly cells [2]: increased resistance
- transcriptional response [3]: sharp increase in stress-response transcripts
